Experimental data taken from ChEMBL document CHEMBL4622979, “Non-rigid Diarylmethyl Analogs of Baloxavir as Cap-Dependent Endonuclease Inhibitors of Influenza Viruses” (J Med Chem, 2020).
Activity calls are given as the source filed them. The calls are words filed in the database; no cut-off is given here.

What was measured:
[1] = Elimination rate constant in CD1 mouse plasma assessed as (12aR)-12-(Diphenylmethyl)-7-hydroxy-3,4,12,12a-tetrahydro-1H-[1,4]oxazino[3,4-c]pyrido[2,1-f ][1,2,4]triazine-6,8-dione level at 15 mg/kg, po administered as single dose measured up to 24 hrs by LC-MS/MS analysis; type: ADME, organism-based; conditions: in vivo
[2] = Cmax in CD1 mouse liver assessed as (12aR)-12-(Diphenylmethyl)-7-hydroxy-3,4,12,12a-tetrahydro-1H-[1,4]oxazino[3,4-c]pyrido[2,1-f ][1,2,4]triazine-6,8-dione level at 15 mg/kg, po administered as single dose measured up to 24 hrs by LC-MS/MS analysis; type: ADME, organism-based; set-up: dose 15 mg/kg, route oral; conditions: in vivo
[3] = AUClast in CD1 mouse kidney assessed as (12aR)-12-(Diphenylmethyl)-7-hydroxy-3,4,12,12a-tetrahydro-1H-[1,4]oxazino[3,4-c]pyrido[2,1-f ][1,2,4]triazine-6,8-dione level at 15 mg/kg, po administered as single dose measured up to 24 hrs by LC-MS/MS analysis; type: ADME, organism-based; conditions: in vivo
[4] = Stability in simulated gastric fluid assessed as parent compound remaining at 1 uM measured after 4 hrs at pH 1.2 by LC-MS/MS analysis; type: physicochemical; conditions: read-out: Stability
[5] = Stability in simulated intestinal fluid assessed as parent compound remaining at 1 uM measured after 4 hrs at pH 1.2 by LC-MS/MS analysis; type: physicochemical; conditions: read-out: Stability
[6] = Tmax in CD1 mouse small intestine assessed as (12aR)-12-(Diphenylmethyl)-7-hydroxy-3,4,12,12a-tetrahydro-1H-[1,4]oxazino[3,4-c]pyrido[2,1-f ][1,2,4]triazine-6,8-dione level at 15 mg/kg, po administered as single dose measured up to 24 hrs by LC-MS/MS analysis; type: ADME, organism-based; conditions: in vivo
[7] = Elimination rate constant in CD1 mouse brain assessed as (12aR)-12-(Diphenylmethyl)-7-hydroxy-3,4,12,12a-tetrahydro-1H-[1,4]oxazino[3,4-c]pyrido[2,1-f ][1,2,4]triazine-6,8-dione level at 15 mg/kg, po administered as single dose measured up to 24 hrs by LC-MS/MS analysis; type: ADME, organism-based; conditions: in vivo
[8] = AUClast in CD1 mouse brain assessed as (12aR)-12-(Diphenylmethyl)-7-hydroxy-3,4,12,12a-tetrahydro-1H-[1,4]oxazino[3,4-c]pyrido[2,1-f ][1,2,4]triazine-6,8-dione level at 15 mg/kg, po administered as single dose measured up to 24 hrs by LC-MS/MS analysis; type: ADME, organism-based; conditions: in vivo
[9] = Cmax in CD1 mouse spleen assessed as (12aR)-12-(Diphenylmethyl)-7-hydroxy-3,4,12,12a-tetrahydro-1H-[1,4]oxazino[3,4-c]pyrido[2,1-f ][1,2,4]triazine-6,8-dione level at 15 mg/kg, po administered as single dose measured up to 24 hrs by LC-MS/MS analysis; type: ADME, organism-based; set-up: dose 15 mg/kg, route oral; conditions: in vivo
[10] = Half life in CD1 mouse muscle assessed as (12aR)-12-(Diphenylmethyl)-7-hydroxy-3,4,12,12a-tetrahydro-1H-[1,4]oxazino[3,4-c]pyrido[2,1-f ][1,2,4]triazine-6,8-dione level at 15 mg/kg, po administered as single dose measured up to 24 hrs by LC-MS/MS analysis; type: ADME, organism-based, Muscle tissue; conditions: in vivo
[11] = Tmax in CD1 mouse muscle assessed as (12aR)-12-(Diphenylmethyl)-7-hydroxy-3,4,12,12a-tetrahydro-1H-[1,4]oxazino[3,4-c]pyrido[2,1-f ][1,2,4]triazine-6,8-dione level at 15 mg/kg, po administered as single dose measured up to 24 hrs by LC-MS/MS analysis; type: ADME, organism-based, Muscle tissue; conditions: in vivo
[12] = Protein binding in human plasma at 1 uM measured after 4 hrs by LC-MS/MS analysis; type: ADME, cell-free; conditions: read-out: PPB (converted)
[13] = Protein binding in rat plasma at 1 uM measured after 4 hrs by LC-MS/MS analysis; type: ADME, cell-free; conditions: read-out: PPB (converted)
[14] = Protein binding in mouse plasma at 1 uM measured after 4 hrs by LC-MS/MS analysis; type: ADME, cell-free; conditions: read-out: PPB (converted)
[15] = system: Influenza A virus; assay: (§1) Antiviral activity against Influenza A/California/04/2009 (H1N1)pdm09 infected in specific pathogen-free BALB/c mouse assessed as protection against virus-induced mouse death at 50 mg/kg, po administered via gavage immediately after infection and at 12 hrs post-infection measured on 16 days post-infection relative to control; type: functional
[16] = system: Influenza A virus; assay: as §1, with “20” for “50”; type: functional
[17] = Toxicity in Influenza A/California/04/2009 (H1N1)pdm09 infected specific pathogen-free BALB/c mouse assessed as effect on body weight at 20 to 50 mg/kg, po administered via gavage immediately after infection and at 12 hrs post-infection measured after 10 days post-infection; type: organism-based; conditions: in vivo, 240 h
[18] = system: Influenza A virus; assay: Antiviral activity against Influenza A/California/04/2009 (H1N1)pdm09 infected in specific pathogen-free BALB/c mouse assessed as reduction in virus titre in lung at 50 mg/kg, po administered via gavage immediately after infection and at 12 hrs post-infection measured 24 hrs post-infection; type: functional, organism-based
[19] = Elimination rate constant in CD1 mouse plasma assessed as baloxavir acid level at 15 mg/kg, po administered as single dose measured up to 24 hrs by LC-MS/MS analysis; type: ADME, organism-based; conditions: in vivo
[20] = Cmax in CD1 mouse plasma assessed as baloxavir acid level at 15 mg/kg, po administered as single dose measured up to 24 hrs by LC-MS/MS analysis; type: ADME, organism-based; set-up: dose 15 mg/kg, route oral; conditions: in vivo
[21] = MRTlast in CD1 mouse plasma assessed as baloxavir acid level at 15 mg/kg, po administered as single dose measured up to 24 hrs by LC-MS/MS analysis; type: ADME, organism-based; conditions: in vivo
[22] = Cmax in CD1 mouse blood assessed as baloxavir acid level at 15 mg/kg, po administered as single dose measured up to 24 hrs by LC-MS/MS analysis; type: ADME, organism-based; set-up: dose 15 mg/kg, route oral; conditions: in vivo
[23] = AUClast in CD1 mouse blood assessed as baloxavir acid level at 15 mg/kg, po administered as single dose measured up to 24 hrs by LC-MS/MS analysis; type: ADME, organism-based; conditions: in vivo
[24] = Half life in CD1 mouse liver assessed as baloxavir acid level at 15 mg/kg, po administered as single dose measured up to 24 hrs by LC-MS/MS analysis; type: ADME, organism-based; conditions: in vivo
[25] = AUClast in CD1 mouse liver assessed as baloxavir acid level at 15 mg/kg, po administered as single dose measured up to 24 hrs by LC-MS/MS analysis; type: ADME, organism-based; conditions: in vivo
[26] = AUCinfinity in CD1 mouse lung assessed as baloxavir acid level at 15 mg/kg, po administered as single dose measured up to 24 hrs by LC-MS/MS analysis; type: ADME, organism-based; set-up: dose 15 mg/kg, route oral, time infinity; conditions: in vivo
[27] = AUClast in CD1 mouse small intestine assessed as baloxavir acid level at 15 mg/kg, po administered as single dose measured up to 24 hrs by LC-MS/MS analysis; type: ADME, organism-based; conditions: in vivo
[28] = AUClast in CD1 mouse brain assessed as baloxavir acid level at 15 mg/kg, po administered as single dose measured up to 24 hrs by LC-MS/MS analysis; type: ADME, organism-based; conditions: in vivo
[29] = Ratio of AUClast in CD1 mouse muscle to plasma assessed as baloxavir acid level at 15 mg/kg, po administered as single dose measured up to 24 hrs by LC-MS/MS analysis; type: ADME, organism-based; conditions: other tissue

Q: For COC(=O)OCOc1c2n(ccc1=O)N(C(c1ccccc1)c1ccccc1)[C@@H]1COCCN1C2=O, which Kel [1] is on record?
A: Its Kel is 0.44 h⁻¹.

Q: What about the Cmax [2] of the same compound?
A: Its Cmax is 12775 ng/g.

Q: What about the AUClast [3] of the same compound?
A: The AUClast was 18065 ng·h/g.

Q: What about the remaining at 4 h, 1 µM [4] of the same compound?
A: Its remaining at 4 h, 1 µM is 94.8%.

Q: What about the remaining at 4 h, 1 µM [5] of the same compound?
A: The remaining at 4 h, 1 µM was 93.7%.

Q: And the Tmax [6]?
A: The Tmax was 0.5 h.

Q: And the Kel [7]?
A: The Kel was 0.08 h⁻¹.

Q: What about the AUClast [8] of the same compound?
A: The AUClast was 609 ng·h/g.

Q: What about the Cmax [9] of the same compound?
A: Its Cmax is 1119 ng/g.

Q: What about the t1/2 [10] of the same compound?
A: The t1/2 was 1.71 h.

Q: What about the Tmax [11] of the same compound?
A: The Tmax was 0.5 h.

Q: What about the fraction unbound at 4 h, 1 µM [12] of the same compound?
A: The fraction unbound at 4 h, 1 µM was 0.01.

Q: And the fraction unbound at 4 h, 1 µM [13]?
A: The fraction unbound at 4 h, 1 µM was 0.016.

Q: And the fraction unbound at 4 h, 1 µM [14]?
A: The fraction unbound at 4 h, 1 µM was 0.009.

Q: And the Activity [15]?
A: The Activity was 80%.

Q: What about the Activity [16] of the same compound?
A: Its Activity is 80%.

Q: And the Activity [17]?
A: Its Activity is “Non-Toxic”.

Q: What about the Activity [18] of the same compound?
A: Its Activity is “Active”.

Q: For COC(=O)OCOc1c2n(ccc1=O)N([C@@H]1c3ccccc3SCc3c1ccc(F)c3F)[C@@H]1COCCN1C2=O [BALOXAVIR MARBOXIL], which Kel [19] is on record?
A: Its Kel is 0.18 h⁻¹.

Q: And the Cmax [20]?
A: Its Cmax is 88.5 ng/mL.

Q: And the MRTlast [21]?
A: Its MRTlast is 2.57 h.

Q: And the Cmax [22]?
A: The Cmax was 215 ng/g.

Q: What about the AUClast [23] of the same compound?
A: Its AUClast is 1381 ng·h/g.

Q: What about the t1/2 [24] of the same compound?
A: Its t1/2 is 2.57 h.

Q: And the AUClast [25]?
A: Its AUClast is 85226 ng·h/g.

Q: What about the AUC [26] of the same compound?
A: The AUC was 9025 ng·h/g.

Q: And the remaining at 4 h, 1 µM [4]?
A: The remaining at 4 h, 1 µM was 101%.

Q: What about the remaining at 4 h, 1 µM [5] of the same compound?
A: Its remaining at 4 h, 1 µM is 87.9%.

Q: What about the AUClast [27] of the same compound?
A: The AUClast was 105778 ng·h/g.

Q: What about the AUClast [28] of the same compound?
A: Its AUClast is 317 ng·h/g.

Q: What about the “Ratio AUC” value [29] of the same compound?
A: The value was 10.4.

Q: And the fraction unbound at 4 h, 1 µM [12]?
A: Its fraction unbound at 4 h, 1 µM is 0.057.

Q: What about the fraction unbound at 4 h, 1 µM [13] of the same compound?
A: Its fraction unbound at 4 h, 1 µM is 0.064.

Q: What about the fraction unbound at 4 h, 1 µM [14] of the same compound?
A: Its fraction unbound at 4 h, 1 µM is 0.08.

Q: What about the Activity [15] of the same compound?
A: Its Activity is 90%.

Q: And the Activity [16]?
A: The Activity was 80%.

Q: What about the Activity [17] of the same compound?
A: The Activity was “Non-Toxic”.

Q: And the Activity [18]?
A: The Activity was “Active”.
